pIC50: −log10 of the molar value. Counter-ions that a name gives are not always drawn.
Legend:
TLR7 = target: T1, TLR7 (Homo sapiens, UniProt Q9NYK1); assay: HEK/293 TLR7 Cell Assay; assay type: cell-based; conditions: TLR7/NFKb HEK cells, R848 agonist 10 uM final concentration, Steady-Glo readout; read-out: TLR7 potency
T1 construct: expressed in transfected cells; host or cells: HEK/293 cells carrying TLR7 and an NF-kB luciferase reporter
T1 sequence (Q9NYK1 27-1049): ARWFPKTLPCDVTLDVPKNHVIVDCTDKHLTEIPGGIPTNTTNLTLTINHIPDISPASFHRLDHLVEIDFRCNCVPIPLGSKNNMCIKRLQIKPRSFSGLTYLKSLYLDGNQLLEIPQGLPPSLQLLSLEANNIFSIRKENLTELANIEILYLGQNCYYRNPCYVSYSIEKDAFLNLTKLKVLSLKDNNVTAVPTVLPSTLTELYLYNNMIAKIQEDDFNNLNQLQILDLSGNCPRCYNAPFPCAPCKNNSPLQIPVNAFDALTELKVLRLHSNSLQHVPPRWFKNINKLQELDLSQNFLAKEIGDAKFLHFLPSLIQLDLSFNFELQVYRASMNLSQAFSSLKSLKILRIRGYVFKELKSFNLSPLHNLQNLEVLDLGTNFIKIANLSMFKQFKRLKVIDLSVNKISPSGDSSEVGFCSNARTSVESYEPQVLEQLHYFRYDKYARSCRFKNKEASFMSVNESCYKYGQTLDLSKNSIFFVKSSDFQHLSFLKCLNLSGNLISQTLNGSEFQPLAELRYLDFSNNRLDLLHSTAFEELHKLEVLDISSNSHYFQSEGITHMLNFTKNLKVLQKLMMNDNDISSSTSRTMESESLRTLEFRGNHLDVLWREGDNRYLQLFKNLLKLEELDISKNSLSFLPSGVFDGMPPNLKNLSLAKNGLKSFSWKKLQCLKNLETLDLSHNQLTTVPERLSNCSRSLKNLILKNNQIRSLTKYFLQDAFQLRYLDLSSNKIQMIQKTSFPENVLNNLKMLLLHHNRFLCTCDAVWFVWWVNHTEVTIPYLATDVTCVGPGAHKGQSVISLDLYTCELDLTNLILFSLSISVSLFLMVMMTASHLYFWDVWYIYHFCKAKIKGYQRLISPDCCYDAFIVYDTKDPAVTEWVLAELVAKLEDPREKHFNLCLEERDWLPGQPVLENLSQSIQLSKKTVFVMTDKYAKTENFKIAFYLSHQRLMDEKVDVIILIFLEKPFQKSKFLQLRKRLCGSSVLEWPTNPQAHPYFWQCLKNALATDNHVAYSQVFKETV
In short: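 Compounds added to HEK cells expressing TLR7 with an NFκB reporter 30 min ahead of 10 uM R848 challenge; luciferase signal (Steady-Glo) measured after 5 h, cells having been seeded 24 h earlier at 5000 per well.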

TLR8 = target: T2, TLR8 (Homo sapiens, UniProt Q9NR97); assay: HEK/293 TLR8 Cell Assay; assay type: cell-based; conditions: HEK cells, R848 agonist 30 uM final concentration, Steady-Glo readout; read-out: TLR8 potency
T2 construct: expressed in transfected cells; host or cells: HEK/293 reporter cells (NF-kB luciferase)
T2 sequence (Q9NR97 27-1041): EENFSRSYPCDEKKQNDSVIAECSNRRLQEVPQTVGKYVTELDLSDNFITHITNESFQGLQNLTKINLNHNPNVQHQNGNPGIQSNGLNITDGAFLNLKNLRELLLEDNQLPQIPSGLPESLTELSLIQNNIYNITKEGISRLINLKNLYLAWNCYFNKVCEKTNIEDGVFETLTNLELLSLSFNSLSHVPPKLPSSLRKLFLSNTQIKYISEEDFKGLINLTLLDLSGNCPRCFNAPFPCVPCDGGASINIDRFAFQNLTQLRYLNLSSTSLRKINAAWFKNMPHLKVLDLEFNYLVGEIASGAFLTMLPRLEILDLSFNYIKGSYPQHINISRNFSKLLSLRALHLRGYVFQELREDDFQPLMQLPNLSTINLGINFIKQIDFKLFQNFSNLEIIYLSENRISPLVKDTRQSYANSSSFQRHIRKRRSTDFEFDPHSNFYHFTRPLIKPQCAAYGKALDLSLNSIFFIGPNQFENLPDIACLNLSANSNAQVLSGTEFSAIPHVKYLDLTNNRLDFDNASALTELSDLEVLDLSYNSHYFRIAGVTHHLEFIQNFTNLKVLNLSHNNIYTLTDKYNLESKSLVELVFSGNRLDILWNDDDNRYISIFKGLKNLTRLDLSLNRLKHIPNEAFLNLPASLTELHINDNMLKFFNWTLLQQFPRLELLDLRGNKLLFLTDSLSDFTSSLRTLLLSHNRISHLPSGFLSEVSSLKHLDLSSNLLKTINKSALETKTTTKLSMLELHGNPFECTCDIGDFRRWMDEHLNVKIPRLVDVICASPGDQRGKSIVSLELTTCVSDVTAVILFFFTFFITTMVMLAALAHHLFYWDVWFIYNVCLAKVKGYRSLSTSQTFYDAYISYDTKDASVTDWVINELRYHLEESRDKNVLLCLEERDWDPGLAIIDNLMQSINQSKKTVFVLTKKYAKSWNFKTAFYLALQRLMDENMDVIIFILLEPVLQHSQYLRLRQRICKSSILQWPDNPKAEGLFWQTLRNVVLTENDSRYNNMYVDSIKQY

C[C@@H]1CN(c2ccc(C#N)c3nccnc23)C[C@H](C(=O)NCC(O)C(F)(F)F)O1 (stereo partly drawn) [Example 237, (2R,6R)-4-(8-Cyano-quinoxalin-5-yl)-6-methyl-morpholine-2-carboxylic acid (3,3,3-trifluoro-2-hydroxy-propyl)-amide]
pIC50 (TLR7): > 7.12
pIC50 (TLR8): > 7.12

C[C@@H]1CN(c2ccc(C#N)c3nccnc23)C[C@H](C(=O)N[C@H]2CNC[C@H]2F)O1 [Example 294, (2R,6R)-4-(8-Cyano-quinoxalin-5-yl)-6-methyl-morpholine-2-carboxylic acid ((3S,4R)-4-fluoro-pyrrolidin-3-yl)-amide hydrochloride (2)]
pIC50 (TLR7): > 7.12
pIC50 (TLR8): > 7.12

CN1CC[C@@](F)(CNC(=O)[C@H]2CN(c3cnc(C#N)c4ncccc34)C[C@@H](C(F)(F)F)O2)C1 (single isomer, unassigned) [Example 350]
pIC50 (TLR7): < 6.82
pIC50 (TLR8): < 6.82

CN(C)CCNC(=O)N[C@@H]1C[C@H](C(F)(F)F)CN(c2ccc(C(F)(F)F)c3nccnc23)C1 [Example 142, 3-[2-(dimethylamino)ethyl]-1-[(3R,5S)-5-(trifluoromethyl)-1-[8-(trifluoromethyl)quinoxalin-5-yl]piperidin-3-yl]urea]
pIC50 (TLR7): 6.82 to 7.12
pIC50 (TLR8): 6.82 to 7.12

C[C@H]1CN(c2ccc(C#N)c3nccnc23)C[C@H](CN2CCN(C)CC2)O1 [Example 231, 8-[(2S,6S)-2-Methyl-6-(4-methyl-piperazin-1-ylmethyl)-morpholin-4-yl]-quinoxaline-5-carbonitrile]
pIC50 (TLR7): > 7.12
pIC50 (TLR8): > 7.12

CCN(C)CCNC(=O)[C@H]1CN(c2ccc(C#N)c3ncncc23)C[C@@H](C)O1 [Example 266, (2R,6R)-4-(8-Cyano-quinazolin-5-yl)-6-methyl-morpholine-2-carboxylic acid [2-(ethyl-methyl-amino)-ethyl]-amide]
pIC50 (TLR7): 6.82 to 7.12
pIC50 (TLR8): < 6.82

C[C@H]1C[C@@H](NC(=O)C2CCNCC2)CN(c2ccc(C(F)(F)F)c3ncccc23)C1 [Example 179, Piperidine-4-carboxylic acid [(3R,5S)-5-methyl-1-(8-trifluoromethyl-quinolin-5-yl)-piperidin-3-yl]-amide]
pIC50 (TLR7): > 7.12
pIC50 (TLR8): > 7.12

C[C@H]1C[C@@H](n2ccnn2)CN(c2ccc(C(F)(F)F)c3nccnc23)C1 (racemic) [Example 154, 5-[cis-3-methyl-5-(1H-1,2,3-triazol-1-yl)piperidin-1-yl]-8-(trifluoromethyl)quinoxaline]
pIC50 (TLR7): < 6.82
pIC50 (TLR8): 6.82 to 7.12

C[C@H]1C[C@@H](NC2CS(=O)(=O)C2)CN(c2ccc(C(F)(F)F)c3ncccc23)C1 [Example 13, (1,1-Dioxo-1lambda6-thietan-3-yl)-[(3R,5S)-5-methyl-1-(8-trifluoromethyl-quinolin-5-yl)-piperidin-3-yl]-amine]
pIC50 (TLR7): > 7.12
pIC50 (TLR8): > 7.12

C[C@@H]1CN(c2ccc(C#N)c3nccnc23)C[C@H](C(=O)NCC2(F)CNC2)O1 [Example 293, (2R,6R)-4-(8-Cyano-quinoxalin-5-yl)-6-methyl-morpholine-2-carboxylic acid (3-fluoro-azetidin-3-ylmethyl)-amide]
pIC50 (TLR7): > 7.12
pIC50 (TLR8): > 7.12

C[C@H]1C[C@@H](NC(=O)C[C@H](O)CN(C)C)CN(c2ccc(C#N)c3nccnc23)C1 [Example 210, (3S)—N-[(3R,5S)-1-(8-cyanoquinoxalin-5-yl)-5-methylpiperidin-3-yl]-4-(dimethylamino)-3-hydroxybutanamide]
pIC50 (TLR7): > 7.12
pIC50 (TLR8): > 7.12

C[C@H]1C[C@@H](NC(=O)CCN(C)C)CN(c2ccc(C(F)(F)F)c3nccnc23)C1 [Example 78]
pIC50 (TLR7): > 7.12
pIC50 (TLR8): > 7.12

CN1CCC(F)(CC(=O)N[C@@H]2C[C@H](C(F)(F)F)CN(c3ccc(C#N)c4nccnc34)C2)CC1 [Example 77]
pIC50 (TLR7): > 7.12
pIC50 (TLR8): > 7.12

C[C@H]1C[C@@H](NC(=O)CC2(F)CCN(C)CC2)CN(c2ccc(C(F)(F)F)c3ncccc23)C1 [Example 83, 2-(4-fluoro-1-methylpiperidin-4-yl)-N-[(3R,5S)-5-methyl-1-[8-(trifluoromethyl)quinolin-5-yl]piperidin-3-yl]acetamide]
pIC50 (TLR7): > 7.12
pIC50 (TLR8): > 7.12

C[C@@H]1CN(c2cnc(C#N)c3ncccc23)C[C@H](CNC(=O)[C@@]2(F)CCNC2)O1 (single isomer, unassigned) [Example 336]
pIC50 (TLR7): > 7.12
pIC50 (TLR8): > 7.12

CN1CCC(F)(CNC(=O)[C@@H]2CN(c3ccc(C#N)c4ncccc34)C[C@H](C(F)(F)F)O2)CC1 (single isomer, unassigned) [Example 354]
pIC50 (TLR7): 6.82 to 7.12
pIC50 (TLR8): < 6.82

C[C@H]1C[C@@H](NCCC2CS(=O)(=O)C2)CN(c2ccc(C#N)c3nccnc23)C1 [Example 43, 8-{(3R,5S)-3-[2-(1,1-Dioxo-1lambda6-thietan-3-yl)-ethylamino]-5-methyl-piperidin-1-yl}-quinoxaline-5-carbonitrile]
pIC50 (TLR7): > 7.12
pIC50 (TLR8): > 7.12

C[C@H]1C[C@@H](NC(=O)[C@@H](N)CC(N)=O)CN(c2ccc(C(F)(F)F)c3ncccc23)C1 [Example 128, (2S)-2-amino-N-[(3R,5S)-5-methyl-1-[8-(trifluoromethyl)quinolin-5-yl]piperidin-3-yl]butanediamide]
pIC50 (TLR7): > 7.12
pIC50 (TLR8): > 7.12

C[C@H]1C[C@@H](NC(=O)CN2CCN(C)CC2)CN(c2ccc(C#N)c3ncncc23)C1 [Example 89, N-[(3R,5S)-1-(8-cyanoquinazolin-5-yl)-5-methylpiperidin-3-yl]-2-(4-methylpiperazin-1-yl)acetamide]
pIC50 (TLR7): > 7.12
pIC50 (TLR8): < 6.82

C[C@H]1C[C@@H](NS(=O)(=O)NCCC2CCN(C)CC2)CN(c2ccc(C(F)(F)F)c3ncccc23)C1 [Example 201, N-[2-(1-methylpiperidin-4-yl)ethyl]{[(3R,5S)-5-methyl-1-[8-(trifluoromethyl)quinolin-5-yl]piperidin-3-yl]amino}sulfonamide]
pIC50 (TLR7): > 7.12
pIC50 (TLR8): > 7.12

C[C@H]1C[C@@H](NC(=O)[C@@H](O)C(C)(C)O)CN(c2ccc(C#N)c3nccnc23)C1 [Example 161, (S)—N-[(3R,5S)-1-(8-Cyano-quinoxalin-5-yl)-5-methyl-piperidin-3-yl]-2,3-dihydroxy-3-methyl-butyramide]
pIC50 (TLR7): > 7.12
pIC50 (TLR8): > 7.12

N#Cc1ccc(N2C[C@H](NC(=O)CO)C[C@H](C(F)(F)F)C2)c2cccnc12 [Example 62, N-[(3R,5S)-1-(8-Cyano-quinolin-5-yl)-5-trifluoromethyl-piperidin-3-yl]-2-hydroxy-acetamide]
pIC50 (TLR7): < 6.82
pIC50 (TLR8): < 6.82

Reference: US20210300940A1 (Merck Patent GmbH, priority 2018, published 2021)
